Assay results from patent US20170022171A1, “2,5-DISUBSTITUTED CYCLOPENTANECARBOXYLIC ACIDS AND THEIR USE” (Bayer Pharma Aktiengesellschaft, priority 2014, published 2017).

Columns and labels:
Type in all cases: biochemical
[1] = target: T1, MMP-10 (Homo sapiens, UniProt P09238); experiment: In vitro MMP-10 inhibition test
T1 construct: purchased R&D Systems 910-MP
Text: (§1) The MMP-mediated amidolytic cleavage of a suitable peptide substrate leads to an increase in fluorescent light here too. The signal intensity of the fluorescent light is directly proportional to the enzyme activity. The active concentration of a test compound at which half the enzyme is inhibited (50% signal intensity of the fluorescent light) is reported as the IC50 value.
(§2) Recombinant MMP-10 (from R&D Systems, 910-MP) is chemically activated in accordance with the manufacturer's instructions using APMA. 1 μl of the test compound to be analysed (as a solution in DMSO, suitable concentrations, for example, 1 nM to 30 μM) is pipetted into 24 μl of activated enzyme (final concentration, for example, 2 nM) in reaction buffer (50 mM Tris/HCl pH 7.5, 10 mM CaCl2, 150 mM NaCl, 0.05% Brij®-35) in a white 384-hole microtiter plate (MTP). The enzymatic reaction is started by adding the intramolecularly quenched Mca-Arg-Pro-Lys-Pro-Val-Glu-Nval-Trp-Arg-Lys(Dnp)-NH2 substrate (final concentration, for example, 10 μM; R&D Systems, ES-002), so as to result in a total test volume of 50 μl. The course of the MMP-10 reaction is measured by measuring the fluorescence intensity (excitation 320 nm, emission 410 nm) over a suitable period of time (for example over 120 min at a temperature of 32° C.).

[2] = target: T2, MMP-3 (Homo sapiens, UniProt P08254); experiment: In vitro MMP-3 inhibition test
T2 construct: purchased R&D Systems 513-MP
T2 sequence (P08254 100-477): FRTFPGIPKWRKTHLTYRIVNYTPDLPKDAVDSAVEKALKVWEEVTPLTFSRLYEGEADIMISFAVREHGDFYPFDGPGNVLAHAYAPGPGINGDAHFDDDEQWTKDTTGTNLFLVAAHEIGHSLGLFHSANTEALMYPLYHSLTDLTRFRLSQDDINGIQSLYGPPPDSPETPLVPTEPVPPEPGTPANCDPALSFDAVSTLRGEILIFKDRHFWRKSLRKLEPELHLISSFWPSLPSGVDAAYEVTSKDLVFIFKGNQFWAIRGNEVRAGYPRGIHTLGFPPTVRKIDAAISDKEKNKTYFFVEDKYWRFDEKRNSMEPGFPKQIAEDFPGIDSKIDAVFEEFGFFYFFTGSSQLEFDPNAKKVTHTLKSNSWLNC
Text: as §1
as §2, with “MMP-3” for “MMP-10”, “513-MP)” for “910-MP)”, “50” for “50 μl.”

[3] = target: T3, human macrophage elastase (HME/hMMP-12) (Homo sapiens, UniProt P39900); experiment: In vitro HME inhibition test (standard or high-sensitivity); details: in some cases mean values
T3 construct: 0.5 nM HME; purchased R&D Systems 917-MP
T3 sequence (P39900 106-470): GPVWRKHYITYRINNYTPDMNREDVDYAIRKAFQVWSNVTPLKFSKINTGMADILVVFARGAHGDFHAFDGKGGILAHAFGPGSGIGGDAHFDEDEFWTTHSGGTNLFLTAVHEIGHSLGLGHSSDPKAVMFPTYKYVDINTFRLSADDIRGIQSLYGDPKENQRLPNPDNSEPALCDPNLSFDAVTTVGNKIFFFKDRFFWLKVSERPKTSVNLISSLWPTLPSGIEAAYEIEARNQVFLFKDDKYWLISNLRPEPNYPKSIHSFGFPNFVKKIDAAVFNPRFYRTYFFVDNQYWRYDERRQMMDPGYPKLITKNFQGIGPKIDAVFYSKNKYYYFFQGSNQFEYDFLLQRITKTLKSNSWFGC
Outline: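 Fluorogenic assay: 0.5 nM autoactivated HME with 5 µM Mca-Pro-Leu-Gly-Leu-Glu-Glu-Ala-Dap(Dnp)-NH2 in HEPES pH 7.4 buffer (NaCl, CaCl2, ZnCl2, EDTA, Brij), 2 h at 37 °C; ex 323/em 393 nm. IC50 from fluorescence versus concentration. High-sensitivity format: ~0.05 nM enzyme, ~16 h incubation.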

[4] = target: T4, MMP-13 (Homo sapiens, UniProt P45452); experiment: In vitro MMP-13 inhibition test
T4 construct: purchased R&D Systems 511-MP
Text: as §1
Recombinant MMP-13 (from R&D Systems, 511-MP) is chemically activated in accordance with the manufacturer's instructions using APMA. 1 μl of the test compound to be analysed (as a solution in DMSO, suitable concentrations, for example, 1 nM to 30 μM) is pipetted into 24 μl of activated enzyme (final concentration, for example, 0.1 nM) in reaction buffer (50 mM Tris/HCl pH 7.5, 10 mM CaCl2, 150 mM NaCl, 0.05% Brij®-35) in a white 384-hole microtiter plate (MTP). The enzymatic reaction is started by adding the intramolecularly quenched Mca-Pro-Leu-Gly-Leu-Dpa(Dnp)-Ala-Arg-NH2 substrate (final concentration, for example, 10 μM; R&D Systems, ES-001), so as to result in a total test volume of 50 The course of the MMP-13 reaction is measured by measuring the fluorescence intensity (excitation 320 nm, emission 410 nm) over a suitable period of time (for example over 120 min at a temperature of 32° C.).

T1 sequence (P09238 99-476): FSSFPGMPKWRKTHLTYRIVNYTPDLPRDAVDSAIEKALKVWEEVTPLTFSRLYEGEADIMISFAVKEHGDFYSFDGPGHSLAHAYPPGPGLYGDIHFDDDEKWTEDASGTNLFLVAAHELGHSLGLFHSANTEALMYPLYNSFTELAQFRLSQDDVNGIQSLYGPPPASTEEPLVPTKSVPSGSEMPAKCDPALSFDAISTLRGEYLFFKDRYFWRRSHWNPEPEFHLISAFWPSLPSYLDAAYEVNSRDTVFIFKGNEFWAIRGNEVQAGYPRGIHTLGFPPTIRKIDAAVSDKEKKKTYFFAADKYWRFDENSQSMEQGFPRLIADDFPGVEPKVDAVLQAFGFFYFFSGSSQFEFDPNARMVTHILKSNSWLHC

IC50 [1] | IC50 [2] | IC50 [3] | IC50 [4] | SMILES
160 nM | 2000 nM | 0.4 nM | 1500 nM | Cc1cccc(COc2ccc(C(=O)[C@H]3CC[C@@H](Cn4nnc5ccc(C)cc5c4=O)[C@@H]3C(=O)O)cc2)c1 (racemic) [Example 97, (+/−)-(1RS,2RS,5SR)-2-{4-[(3-Methylbenzyl)oxy]benzoyl}-5-[(6-methyl-4-oxo-1,2,3-benzotriazin-3(4H)-yl)methyl]cyclopentanecarboxylic acid]
160 nM | 1500 nM | 0.08 nM | 360 nM | Cc1ccc2nnn(C[C@@H]3CC[C@H](C(=O)c4ccc(OCc5cccc(C(F)(F)F)c5)cc4)[C@H]3C(=O)O)c(=O)c2c1 (racemic) [Example 100, (+/−)-(1RS,2SR,5RS)-2-[(6-Methyl-4-oxo-1,2,3-benzotriazin-3(4H)-yl)methyl]-5-(4-{[3-(trifluoromethyl)benzyl]oxy}benzoyl)cyclopentanecarboxylic acid]
35 nM | 340 nM | 0.1 nM | 250 nM | Cc1ccc2nnn(C[C@@H]3CC[C@H](C(=O)c4ccc(OCc5cccc(Cl)c5)cc4)[C@H]3C(=O)O)c(=O)c2c1 (racemic) [Example 103, (+/−)-(1RS,2RS,5SR)-2-{4-[(3-Chlorobenzyl)oxy]benzoyl}-5-[(6-methyl-4-oxo-1,2,3-benzotriazin-3(4H)-yl)methyl]cyclopentanecarboxylic acid]
39 nM | 450 nM | 0.078 nM | 120 nM | COc1cccc(COc2ccc(C(=O)[C@H]3CC[C@@H](Cn4nnc5ccc(C)cc5c4=O)[C@@H]3C(=O)O)cc2)c1 (racemic) [Example 106, (+/−)-(1RS,2RS,5SR)-2-{4-[(3-Methoxybenzyl)oxy]benzoyl}-5-[(6-methyl-4-oxo-1,2,3-benzotriazin-3(4H)-yl)methyl]cyclopentanecarboxylic acid]
100 nM | 840 nM | 0.14 nM | 190 nM | Cc1ccc2nnn(C[C@@H]3CC[C@H](C(=O)c4ccc(OCc5cccc(OC(F)(F)F)c5)cc4)[C@H]3C(=O)O)c(=O)c2c1 (racemic) [Example 109, (+/−)-(1RS,2SR,5RS)-2-[(6-Methyl-4-oxo-1,2,3-benzotriazin-3(4H)-yl)methyl]-5-(4-{[3-(trifluoromethoxy)benzyl]oxy}benzoyl)cyclopentanecarboxylic acid]
81 nM | 540 nM | 0.088 nM | 230 nM | CCCCCOc1ccc(C(=O)[C@H]2CC[C@@H](Cn3nnc4ccc(C)cc4c3=O)[C@@H]2C(=O)O)cc1 (racemic) [Example 123, (+/−)-(1RS,2SR,5RS)-2-[(6-Methyl-4-oxo-1,2,3-benzotriazin-3(4H)-yl)methyl]-5-[4-(pentyloxy)benzoyl]cyclopentanecarboxylic acid]
22 nM | 62 nM | 0.018 nM | 33 nM | O=C(O)[C@@H]1[C@@H](Cn2nnc3ccc(C(F)(F)F)cc3c2=O)CC[C@H]1C(=O)c1ccc(OCc2ccc(F)cc2)cc1 (single isomer, unassigned) [Example 13, (+)-(1RS,2RS,5SR)-2-{4-[(4-Fluorobenzyl)oxy]benzoyl}-5-{[4-oxo-6-(trifluoromethyl)-1,2,3-benzotriazin-3(4H)-yl]methyl}cyclopentanecarboxylic acid]
37 nM | 350 nM | 0.064 nM | 1000 nM | Cc1cccc(COc2ccc(C(=O)[C@@H]3CC[C@H](Cn4nnc5ccc(C(F)(F)F)cc5c4=O)[C@H]3C(=O)O)cc2)c1 (single isomer, unassigned) [Example 16, (+)-(1RS,2RS,5SR)-2-{4-[(3-Methylbenzyl)oxy]benzoyl}-5-{[4-oxo-6-(trifluoromethyl)-1,2,3-benzotriazin-3(4H)-yl]methyl}cyclopentanecarboxylic acid]
270 nM | 3000 nM | 0.027 nM | 2600 nM | O=C(O)[C@@H]1[C@@H](Cn2nnc3ccc(C(F)(F)F)cc3c2=O)CC[C@H]1C(=O)c1ccc(OCc2cccc(C(F)(F)F)c2)cc1 (single isomer, unassigned) [Example 19, (+)-(1RS,2SR,5RS)-2-{[4-Oxo-6-(trifluoromethyl)-1,2,3-benzotriazin-3(4H)-yl]methyl}-5-(4-{[3-(trifluoromethyl)benzyl]oxy}benzoyl)cyclopentanecarboxylic acid]
87 nM | 540 nM | 0.032 nM | 1500 nM | O=C(O)[C@@H]1[C@@H](Cn2nnc3ccc(C(F)(F)F)cc3c2=O)CC[C@H]1C(=O)c1ccc(OCc2cccc(Cl)c2)cc1 (single isomer, unassigned) [Example 23, (+)-(1RS,2RS,5SR)-2-{4-[(3-Chlorobenzyl)oxy]benzoyl}-5-{[4-oxo-6-(trifluoromethyl)-1,2,3-benzotriazin-3(4H)-yl]methyl}cyclopentanecarboxylic acid]
19 nM | 63 nM | 0.013 nM | 45 nM | O=C(O)[C@@H]1[C@@H](Cn2nnc3ccc(C(F)(F)F)cc3c2=O)CC[C@H]1C(=O)c1ccc(OCc2ccc(Cl)cc2)cc1 (single isomer, unassigned) [Example 25, (+)-(1RS,2RS,5SR)-2-{4-[(4-Chlorobenzyl)oxy]benzoyl}-5-{[4-oxo-6-(trifluoromethyl)-1,2,3-benzotriazin-3(4H)-yl]methyl}cyclopentanecarboxylic acid]
53 nM | 400 nM | 0.013 nM | 53 nM | O=C(O)[C@@H]1[C@@H](Cn2nnc3ccc(C(F)(F)F)cc3c2=O)CC[C@H]1C(=O)c1ccc(OCc2cccc(N3CCOC3=O)c2)cc1 (single isomer, unassigned) [Example 35, (+)-(1RS,2RS,5SR)-2-(4-{[3-(2-Oxo-1,3-oxazolidin-3-yl)benzyl]oxy}benzoyl)-5-{[4-oxo-6-(trifluoromethyl)-1,2,3-benzotriazin-3(4H)-yl]methyl}cyclopentanecarboxylic acid]
20 nM | 41 nM | 0.01 nM | 110 nM | O=C(O)[C@@H]1[C@@H](Cn2nnc3ccc(C(F)(F)F)cc3c2=O)CC[C@H]1C(=O)c1ccc(OCC2CCCCC2)cc1 (single isomer, unassigned) [Example 41, (+)-(1RS,2RS,5SR)-2-[4-(Cyclohexylmethoxy)benzoyl]-5-{[4-oxo-6-(trifluoromethyl)-1,2,3-benzotriazin-3(4H)-yl]methyl}cyclopentanecarboxylic acid]
28 nM | 140 nM | 0.024 nM | 58 nM | O=C(O)[C@@H]1[C@@H](Cn2nnc3ccc(C(F)(F)F)cc3c2=O)CC[C@H]1C(=O)c1ccc(OCC2CCCC2)cc1 (single isomer, unassigned) [Example 44, (+)-(1RS,2RS,5SR)-2-[4-(Cyclopentylmethoxy)benzoyl]-5-{[4-oxo-6-(trifluoromethyl)-1,2,3-benzotriazin-3(4H)-yl]methyl}cyclopentanecarboxylic acid]
